Data on 65 compounds can be found in the supplement of paper PMC10290057.

Values joined by “and” are separate entries in the source; they are usually repeats but may differ in a detail not shown here. Equal entries are not always repeated. Structures can show the parent of a compound that is named as a salt.
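Further: Luminescence-based viability readout, five doses per compound, normalized against on-plate DMSO and empty-well controls, followed by dose-response curve fitting for every drug.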

In this assay the test system is HCT116. Put plainly: efficacy (fitted maximal change in viability relative to DMSO control); higher = less cytotoxic (negative = loss of viability). The following applies: 48 h.
For the compound `C[C@]12CCC3[C@@H](CC[C@H]4NC(=O)\C=C/[C@]34C)[C@@H]1CC[C@@H]2C(=O)NC5=CC(=CC=C5C(F)(F)F)C(F)(F)F` (stereo not given in full) [Dutasteride], the efficacy was -20%.
The result for `Cn1c(=O)c2c(ncn2CC(O)CO)n(C)c1=O` (stereo not given) [Dyphylline] reads -13%; that for `O=C1NNc2nc(CN3Cc4ccccc4C3)nc3cccc1c23` [E-7449], -29.7%.
For `COc1ccc([S+](=O)([O-])Nc2cc(-c3csc(C#N)c3)ccc2C)cc1` [EL-102], the efficacy is -62%.
For `CN1CCN(C(=O)[C@H]2[C@@H](C(=O)O)[C@H]3CC[C@@H]2O3)CC1` [EMPM], the efficacy is -12%.
In the case of `C[C@@H](C1CC[C@@]2(O)C3=CC(=O)[C@@H]4C[C@@H](O)[C@@H](O)C[C@]4(C)[C@H]3CC[C@]12C)[C@H](O)CCC(C)(C)O` (stereo not given in full) [Ecdysone], the efficacy is -17.9%.
On to `C\C1=N\N(C(=O)C1)C2=CC=CC=C2` [Edaravone], for which the efficacy was -11.9%.
For `Cc1cc(Oc2ccc3nc(COc4ccc(CC5SC(=O)NC5=O)cc4)n(C)c3c2)cc(C)c1N` (stereo not given) [Efatutazone], the efficacy is -24.7%.
As for `O=C1Nc2ccc(Cl)cc2[C@@](C#CC2CC2)(C(F)(F)F)O1` [Efavirenz], the efficacy is -85.4%.
The figure for `NCCCC(N)(C(=O)O)C(F)F` (stereo not given) [Eflornithine Hydrochloride] is 19%.
Regarding `COc1cc2c(cc1OC)CN(CCc1ccc(NC(=O)c3cccc4c(=O)c5cccc(OC)c5[nH]c34)cc1)CC2` [Elacridar], the efficacy was -16.8%.
Regarding `COC1=C(F)C(=CC=C1)C/2=C(C)/N(CC3=C(F)C=CC=C3C(F)(F)F)C(=O)N(C[C@H](NCCCC(O)=O)C4=CC=CC=C4)C2=O` [Elagolix], the efficacy was -32.8% and -32.2%.
The figure for `CN(NC(=O)CC(=O)NN(C)C(=S)c1ccccc1)C(=S)c1ccccc1` [Elesclomol (STA-4783)] is -39.3%; for `CC1=NN(c2ccc(C)c(C)c2)C(=O)/C1=N/Nc1cccc(-c2cccc(C(=O)O)c2)c1O` [Eltrombopag olamine] it is -17.2%.
The result for `COC1=CC2=C(C=C1CC3=C(F)C(=CC=C3)Cl)C(=O)\C(=C/N2[C@H](CO)C(C)C)C(O)=O` [Elvitegravir] reads -72.2%; that for `Cc1cc(O)c2c(c1)C(=O)c1cc(O)cc(O)c1C2=O` [Emodin], -31.9%.
As for `CCOC(=O)[C@H](CCc1ccccc1)N[C@@H](C)C(=O)N1CCC[C@H]1C(=O)O` [Enalapril maleate], the efficacy was -15.7%.
In the case of `CC/C(=C(/c1ccc(O)cc1)c1ccc(OCCNC)cc1)c1ccccc1` [Endoxifen], the efficacy is -71.8%.
For `CC1(C)[C@@H](O)CC[C@@]2(C)[C@H]1CC[C@]3(C)[C@@H]2C(=O)\C=C/4[C@@H]5C[C@](C)(CC[C@]5(C)CC[C@@]34C)C(O)=O` [Enoxolone], the efficacy is -35.4%.
Consider `CNC(=O)c1ccc(N2C(=S)N(c3ccc(C#N)c(C(F)(F)F)c3)C(=O)C2(C)C)cc1F` [Enzalutamide], for which the efficacy was -37%.
As to `N[S+](=O)([O-])NCCNc1nonc1/C(=N/O)Nc1ccc(F)c(Br)c1` [Epacadostat], the efficacy is -25.2%.
As to `CNC[C@H](O)c1ccc(O)c(O)c1` [Epinephrine], the efficacy was -17.8%.
On to `COC(=O)[C@@H]1CC/2=C/C(=O)CC[C@]2(C)[C@@]34O[C@@H]3C[C@@]5(C)[C@@H](CC[C@@]56CCC(=O)O6)[C@H]14` [Eplerenone], for which the efficacy was -6.15%.
In the case of `C/C(=C\c1csc(C)n1)[C@@H]1C[C@@H]2O[C@@H]2CCC[C@H](C)[C@H](O)[C@@H](C)C(=O)C(C)(C)[C@@H](O)CC(=O)O1` [Epothilone A], the efficacy was -68.2%.
Consider `O=C(O)CSCC(=O)NC1CCSC1=O` (stereo not given) [Erdosteine], for which the efficacy amounted to 9.04%.
With `CC[C@H]1OC(=O)[C@H](C)[C@@H](O[C@H]2C[C@@](C)(OC)[C@@H](O)[C@H](C)O2)[C@H](C)[C@@H](O[C@@H]2O[C@H](C)C[C@H](N(C)C)[C@H]2O)[C@](C)(O)C[C@@H](C)C(=O)[C@H](C)[C@@H](O)[C@]1(C)O` [Erythromycin], the efficacy stood at 23%.
Turning to `C[C@]12CC[C@@H]3c4ccc(O)cc4CC[C@H]3[C@@H]1[C@@H](O)[C@@H](O)[C@@H]2O` [Estetrol], the efficacy is -16.1%.
For `C[C@]12CC[C@@H]3c4ccc(O)cc4CC[C@H]3[C@@H]1C[C@@H](O)[C@@H]2O` [Estriol], the efficacy is -52.3%.
For the compound `C[C@]12CCC3c4ccc(O)cc4CCC3C1CCC2=O` (stereo not given in full) [Estrone], the efficacy was -24.4%.
The result for `C#C[C@]1(O)CC[C@H]2[C@@H]3CCc4cc(O)ccc4[C@H]3CC[C@@]21C` [Ethinylestradiol] reads -54.2%; that for `CCC1(C)CC(=O)NC1=O` (stereo not given) [Ethosuximide], -10.2%.
Turning to `Cc1ccc(-c2ncc(Cl)cc2-c2ccc([S+](C)(=O)[O-])cc2)cn1` [Etoricoxib], the efficacy was -16.9%.
For `CO[C@H]1C[C@@H]2CC[C@@H](C)[C@@](O)(O2)C(=O)C(=O)N2CCCC[C@H]2C(=O)O[C@H]([C@H](C)C[C@@H]2CC[C@@H](OCCO)[C@H](OC)C2)CC(=O)[C@H](C)/C=C(/C)[C@@H](O)[C@@H](OC)C(=O)[C@H](C)C[C@H](C)\C=C/C=C\C=C/1C` [Everolimus], the efficacy was -57.4%.
Take `CC(=O)N[C@H]1CSSC[C@@H](C(N)=O)NC(=O)[C@H](C(C)C)NC(=O)[C@H](C)NC(=O)[C@H](Cc2cnc[nH]2)NC1=O` [Exherin]: the efficacy was -8%.
Take `CCOC(=O)[C@@H](N)CCC(=O)N[C@@H](CSCc1ccccc1)C(=O)N[C@@H](C(=O)OCC)c1ccccc1` [Ezatiostat]: the efficacy is -18.5%.
`O=C1[C@H](CC[C@H](O)c2ccc(F)cc2)[C@@H](c2ccc(O)cc2)N1c1ccc(F)cc1` [Ezetimibe]: the efficacy is -48.2%.
The result for `CC[S+](=O)([O-])c1ccc2oc(-c3ccc4ccccc4c3)nc2c1` [Ezutromid] reads -24.2%; that for `CCC(=O)N[C@H]1CC[C@H](C(=O)N(C)c2ccc(-c3nc4ccccc4o3)cc2)C1` [FASN BI], -31.4%; that for `COC1=CC=CC=C1C2=CC=CC(=C2)C/3=C(O)/C4=CC(=C(Cl)C=C4NC3=O)C#N` [FASN MRK], -12.8%.
Consider `O=C(O)CNC(=O)c1nc(Cl)c2ccccc2c1O` [FG-2216], for which the efficacy was -7.52%.
With `CC1(C)O[C@@H]2C[C@H]3[C@@H]4C[C@H](F)\C5=C\C(=O)\C=C/[C@]5(C)[C@H]4[C@@H](O)C[C@]3(C)[C@@]2(O1)C(=O)CO` [FLUNISOLIDE], the efficacy is -18.4%.
As to `CCN1C(=O)\C(=C/C2=CN=C(NCCC3CCN(C)CC3)N=C12)C4=CC=C(C=C4Cl)C5=CN=CC(=N5)C` [FRAX-1036], the efficacy was -62.9%.
Take `N#Cc1ccc(C2CCCc3cncn32)cc1` (stereo not given) [Fadrozole]: the efficacy was -10.8%.
In the case of `CC(=O)OCC(CCn1cnc2cnc(N)nc21)COC(C)=O` [Famciclovir], the efficacy is -14.2%.
Turning to `NC(=O)c1nc(F)cnc1O` [Favipiravir], the efficacy was -17.6%.
In the case of `Cc1nc(-c2ccc(OCC(C)C)c(C#N)c2)sc1C(=O)O` [Febuxostat], the efficacy worked out at 3.94%.
Turning to `CN1CC(=O)\N=C1\NC(=O)NC2=CC(=CC=C2)Cl` [Fenobam], the efficacy was 5.7%.
Consider `CC(C)OC(=O)C(C)(C)Oc1ccc(C(=O)c2ccc(Cl)cc2)cc1` [Fenofibrate], for which the efficacy was -34.6%.
As to `Oc1ccc(C2CNCCc3c2cc(O)c(O)c3Cl)cc1` (stereo not given) [Fenoldopam], the efficacy is -23.6%.
As to `CC(C)(C)NC(=O)[C@H]1CC[C@H]2[C@@H]3CC[C@H]4NC(=O)\C=C/[C@]4(C)[C@H]3CC[C@]12C` [Finasteride], the efficacy is -16.1%.
As for `OC1=CC2=C(C=C1)C(=O)\C(=C(O2)\C3=CC(=C(O)C=C3)O)O` [Fisetin], the efficacy is -56.3%.
Take `O=C(NCC1CCCCN1)c1cc(OCC(F)(F)F)ccc1OCC(F)(F)F` (stereo not given) [Flecainide acetate]: the efficacy is -24.2%.
In the case of `NC/1=N/C(=O)N/C=C1F` [Flucytosine], the efficacy was -10.7%.
The figure for `CC1(C)O[C@@H]2C[C@H]3[C@@H]4C[C@H](F)C/5=C/C(=O)/C=C\[C@]5(C)[C@@]4(F)[C@@H](O)C[C@]3(C)[C@@]2(O1)C(=O)CO` [Fluocinolone acetonide] is -10.6%; for `CC(=O)OCC(=O)[C@@]12OC(C)(C)O[C@@H]1C[C@H]3[C@@H]4C[C@H](F)C/5=C/C(=O)/C=C\[C@]5(C)[C@@]4(F)[C@@H](O)C[C@]23C` [Fluocinonide] it is -12.9%; for `CCOC(=O)Nc1ccc(NCc2ccc(F)cc2)nc1N` [Flupirtine maleate] it is 8.9%.
Take `CC(C(=O)O)c1ccc(-c2ccccc2)c(F)c1` (stereo not given) [Flurbiprofen]: the efficacy is -9.87%.
Turning to `CC(C)C(=O)Nc1ccc([N+](=O)[O-])c(C(F)(F)F)c1` [Flutamide], the efficacy is -14.3%.
Consider `CCC(=O)O[C@@]1([C@H](C)C[C@H]2[C@@H]3C[C@H](F)\C4=C\C(=O)\C=C/[C@]4(C)[C@@]3(F)[C@@H](O)C[C@]12C)C(=O)SCF` [Fluticasone propionate], for which the efficacy is -11.6%.
In the case of `Cc1cn[nH]c1` [Fomepizole], the efficacy was -18.8%.
Consider `C[C@]12CCC(=O)C(O)=C1CC[C@@H]1[C@@H]2CC[C@]2(C)C(=O)CC[C@@H]12` [Formestane], for which the efficacy amounted to 24.5%.
As for `CCOP(=O)(OCC)C(C)NC(=O)N(CCCl)N=O` (stereo not given) [Fotemustine], the efficacy came to 7.5%.
The result for `CNC(=O)c1c(C)oc2cc(Oc3ncnc4cc(OC)c(OC)cc34)ccc12` [Fruquintinib] reads -11.4%.
The result for `C[C@]12CC[C@@H]3c4ccc(O)cc4C[C@@H](CCCCCCCCC[S+]([O-])CCCC(F)(F)C(F)(F)F)[C@H]3[C@@H]1CC[C@@H]2O` (stereo not given in full) [Fulvestrant] reads -14.2%; that for `CN[C@@H](C)C(=O)N[C@H](C(=O)N1CCC[C@H]1C(=O)Nc1snnc1-c1ccccc1)C1CCCCC1` [GDC-0152], -13.4%.
